Experiments:
Type in all cases: cell-based
[1] = tested on: human living skin explant; test: TUNEL assay (UV-induced DNA damage) on human living skin explants; settings: UV irradiated
Description: (§1) human skin explants of an average diameter of 12 mm (±1 mm) were prepared on an abdoplasty coming from a person). The explants were kept in survival in BEM culture medium at 37° C. in a humid, 5%-CO2 atmosphere.
(§2) On day 0 (D0), day 1, day 2 and day 3 (3 hours before irradiation), the tested products were applied topically on surface of skin explants at the rate of 2 mg/cm^2, twice a day for D1 and D2 and once on DO and D3. […] The medium was half renewed (1 ml per well) on day 2.
(§3) On D3, the culture media of all the batches was replaced by HBSS solution (Hank's Balanced Saline Solution; 1 ml per explant). The batches “UV” were irradiated by UVA+ UVB using a UV simulator Vibert Lourmat RMX 3W with a dose of 18 J/cm2 of UVA (4 MED, minimal erythemal dose) and 0.3 J/cm2 of UVB (2 MED). The unirradiated batches were kept in HBSS in the dark. At the end of the irradiation the explants were put back in 2 mL of BEM medium.
(§4) After fixation for 24 hours in buffered formalin, the samples were dehydrated and impregnated in paraffin using a Leica PEARL dehydration automat. The samples were embedded using a Leica EG 1160 embedding station. 5-μm-thick sections were made using a Leica RM 2125 Minot-type microtome, and the sections were mounted on Superfrost® histological glass slides. The frozen samples were cut into 7-μm-thick sections using a Leica CM 3050 cryostat. Sections were then mounted on Superfrost® plus silanized glass slides. The microscopical observations were realized using a Leica DMLB or Olympus BX43 microscope. Pictures were digitized with a numeric DP72 Olympus camera with CellD storing software.
DNA oxidization is a type of damage that can be promoted by reactive oxygen species (ROS), generated by UV exposure. […] The staining was assessed by microscopical observation. Batches analyzed were T, TUV, P1UV, P2UV, P3UV at day 4 also referred to as TJ4, TUVJ4, P1UVJ4, P2UVJ4, P3UVJ4 (T=Control batch non treated non irradiated; TJ4=T at Day 4 (D4); TUV: control batch non treated UV irradiated; TUVJ4=[…] at Day 4; P1J4: product A 4% non irradiated at D4; P2J4: product A 2% non irradiated at D4; P3J4: product A 1% non irradiated at D4; P1UV: product A 4% UV irradiated; P1UVJ4: product A 4% UV irradiated at D4 P2UV: product A 2% UV irradiated; P2UVJ4: product A 2% UV irradiated at D4; P3UV: product A 1% UV irradiated; P3UVJ4: product A 1% UV irradiated at D4

HO-1 (Heme-Oxygenase-1) = test: Immunostaining of HO-1 in human skin explants, image analysis
Description: 59 human skin explants of an average diameter of 14 mm (±1 mm) were prepared on an abdoplasty coming from a person. The explants were kept in survival in BEM culture medium at 37° C. in a humid, 5%-CO2 atmosphere.
The tested products were topically applied on the basis of 2 μl per cm^2 and spread using a small spatula twice a day (morning and evening) on day 0, 1, 2, 3 and 4.
On D4, the explants of the batches ML and PML were placed on the 3D grid with 900 μl of HBSS and placed into the PolluBox® system.
3 mL of the solution <<ML>> (supplemented with 150 μl/ml of NaCl 0.9%) were exposed by vaporization for 1 hour and half, as shown in the figure below.
Heme-Oxygenase is a phase II skin anti-oxidant enzyme which generates cell anti-oxidant molecules. […] The immunostaining was performed using an automated slide processing system (Autostainer, Dako) and assessed by microscopical observation. […]
The images analyses were performed on all the images (9 to 12 images) of each batch using the CellD storing software (Olympus Microscopy, Matrix Optics (M)SdnBhd, Taman Mayhang, Maylasia). For each batch of explants, the percentage of the region of interest covered by the staining (stained surface percentage) was determined by image analysis. […]
Analyzed batches: T, P2, ML, P2ML (4 batches, 3 explants/batch, so 12 explants at day 5 referred to as TJ5, P2J5, MLJ5, P2MLJ5.

[2] = tested on: human living skin explant; test: Immunostaining of carbonylated proteins (FTZ) on human living skin explants
Description: as §1, §2, §3, §4
Protein carbonylation is a type of protein oxidation that can be promoted by reactive oxygen species (ROS), generated by UV exposure. FTZ marker assay was conducted by immunostaining in the living epidermis of human skin explant as follows: Carbonylated proteins were stained on frozen sections with the anti-carbonylated proteins probe (fluorescein-5-thiosemicarbazid-FTZ) (Lifetechnologies, Ref. F-121) diluted at 0.5 μM in MES-Na+ and incubated for 30 minutes in the dark and at room temperature. The staining was observed by epifluorescence and assessed by microscopical observations. Batches analyzed were T, TUV, P1UV, P2UV, P3UV at day 4 also referred to as TJ4, TUVJ4, P1UVJ4, P2UVJ4, P3UVJ4

SMILES: O=C(O)[C@@H]1CCCN1 [Combination P4, L-Proline]
- activity against UV-induced DNA damage [1]: strong inhibition of the increase of DNA damage
- effect on pollutant-induced HO-1 (HO-1 (Heme-Oxygenase-1); after pollutants exposure): strongly reduced the effect of the pollutants
- effect on HO-1 expression (HO-1 (Heme-Oxygenase-1); without pollutants, D5): does not seem to affect the HO-1 expression
- effect on UV-induced carbonylated proteins ([2]; UV irradiated): inhibited the formation of carbonylated proteins
- Carbonylated proteins (FTZ), variation vs TJ4 ([2]; non irradiated, day 4): ↔ (indicates no variation)

Reference: patent publication US20210369583A1, “COMPOSITIONS FOR PROVIDING SKIN CARE BENEFITS AND METHODS OF USE” (Danisco US Inc., priority 2018, published 2021)
